Test results as given in patent US12485157B2, “Method of treating COVID-19” (Pfizer Inc., priority 2020, dated 2025).
pKi: −log10 of the molar value.

Each compound was assayed against SARS-CoV-2 3CL protease (Severe acute respiratory syndrome coronavirus 2 (2019-nCoV) (SARS-CoV-2), UniProt P0DTD1) (assay: SARS-CoV-2 Coronavirus 3C Protease FRET Assay). Settings: FRET assay control inhibitor.
Type: biochemical

SMILES | inhibition of SARS-CoV-2 3CLpro (fluorescent signal reduced)
COc1cccc2[nH]c(C(=O)N[C@@H](CC(C)C)C(=O)N[C@@H](C[C@@H]3CCNC3=O)C(=O)CO)cc12 [PF-835231, reference compound] | potent inhibitor

Same assay, conditions: read-out: 3CL Protease Geometric Mean Ki

SMILES | pKi
COc1cccc2[nH]c(C(=O)N[C@@H](CC(C)C)C(=O)N[C@@H](C[C@@H]3CCNC3=O)C(=O)COC(C)=O)cc12 [Example 1, (3S)-3-({N-[(4-methoxy-1H-indol-2-yl)carbonyl]-L-leucyl}amino)-2-oxo-4-[(3S)-2-oxopyrrolidin-3-yl]butyl acetate] | 7.71
COc1cccc2[nH]c(C(=O)N[C@@H](CC(C)C)C(=O)N[C@@H](C[C@@H]3CCNC3=O)C(=O)COC(=O)C(C)(C)C)cc12 [Example 2, (3S)-3-({N-[(4-methoxy-1H-indol-2-yl)carbonyl]-L-leucyl}amino)-2-oxo-4-[(3S)-2-oxopyrrolidin-3-yl]butyl pivalate] | 7.03
COc1cccc2[nH]c(C(=O)N[C@@H](CC(C)C)C(=O)N[C@@H](C[C@@H]3CCNC3=O)C(=O)COC(=O)c3ccccc3)cc12 [Example 3, (3S)-3-({N-[(4-methoxy-1H-indol-2-yl)carbonyl]-L-leucyl}amino)-2-oxo-4-[(3S)-2-oxopyrrolidin-3-yl]butyl benzoate] | 6.63
COc1cccc2[nH]c(C(=O)N[C@@H](CC(C)C)C(=O)N[C@@H](C[C@@H]3CCNC3=O)C(=O)COC(=O)c3ccc(C)cc3)cc12 [Example 4, (3S)-3-({N-[(4-methoxy-1H-indol-2-yl)carbonyl]-L-leucyl}amino)-2-oxo-4-[(3S)-2-oxopyrrolidin-3-yl]butyl 4-methylbenzoate] | 7.75
COc1cccc2[nH]c(C(=O)N[C@@H](CC(C)C)C(=O)N[C@@H](C[C@@H]3CCNC3=O)C(=O)COC(=O)c3ccc(F)cc3)cc12 [Example 5, (3S)-3-({N-[(4-methoxy-1H-indol-2-yl)carbonyl]-L-leucyl}amino)-2-oxo-4-[(3S)-2-oxopyrrolidin-3-yl]butyl 4-fluorobenzoate] | 7.79
COc1cccc2[nH]c(C(=O)N[C@@H](CC(C)C)C(=O)N[C@@H](C[C@@H]3CCNC3=O)C(=O)COC(=O)c3ccc(C#N)cc3)cc12 [Example 6, (3S)-3-({N-[(4-methoxy-1H-indol-2-yl)carbonyl]-L-leucyl}amino)-2-oxo-4-[(3S)-2-oxopyrrolidin-3-yl]butyl 4-cyanobenzoate] | 8.72
COc1ccc(C(=O)OCC(=O)[C@H](C[C@@H]2CCNC2=O)NC(=O)[C@H](CC(C)C)NC(=O)c2cc3c(OC)cccc3[nH]2)cc1 [Example 7, (3S)-3-({N-[(4-methoxy-1H-indol-2-yl)carbonyl]-L-leucyl}amino)-2-oxo-4-[(3S)-2-oxopyrrolidin-3-yl]butyl 4-methoxybenzoate] | 7.48
COc1cccc2[nH]c(C(=O)N[C@@H](CC(C)C)C(=O)N[C@@H](C[C@@H]3CCNC3=O)C(=O)COC(=O)c3ccc(Cl)cc3)cc12 [Example 8, (3S)-3-({N-[(4-methoxy-1H-indol-2-yl)carbonyl]-L-leucyl}amino)-2-oxo-4-[(3S)-2-oxopyrrolidin-3-yl]butyl 4-chlorobenzoate] | 7.73
COc1cccc2[nH]c(C(=O)N[C@@H](CC(C)C)C(=O)N[C@@H](C[C@@H]3CCNC3=O)C(=O)COC(=O)c3c(Cl)cccc3Cl)cc12 [Example 9, (3S)-3-({N-[(4-methoxy-1H-indol-2-yl)carbonyl]-L-leucyl}amino)-2-oxo-4-[(3S)-2-oxopyrrolidin-3-yl]butyl 2,6-dichlorobenzoate] | 9.52
COc1cccc2[nH]c(C(=O)N[C@@H](CC(C)C)C(=O)N[C@@H](C[C@@H]3CCNC3=O)C(=O)COC(=O)c3c(C)cccc3C)cc12 [Example 10, (3S)-3-({N-[(4-methoxy-1H-indol-2-yl)carbonyl]-L-leucyl}amino)-2-oxo-4-[(3S)-2-oxopyrrolidin-3-yl]butyl 2,6-dimethylbenzoate] | 8.47
COc1cccc2[nH]c(C(=O)N[C@@H](CC(C)C)C(=O)N[C@@H](C[C@@H]3CCNC3=O)C(=O)COC(=O)c3c(F)cccc3F)cc12 [Example 11, (3S)-3-({N-[(4-methoxy-1H-Indol-2-yl)carbonyl]-L-leucyl}amino)-2-oxo-4-[(3S)-2-oxopyrrolidin-3-yl]butyl 2,6-difluorobenzoate] | 8.89
COc1cccc(OC)c1C(=O)OCC(=O)[C@H](C[C@@H]1CCNC1=O)NC(=O)[C@H](CC(C)C)NC(=O)c1cc2c(OC)cccc2[nH]1 [Example 12, (3S)-3-({N-[(4-methoxy-1H-indol-2-yl)carbonyl]-L-leucyl}amino)-2-oxo-4-[(3S)-2-oxopyrrolidin-3-yl]butyl 2,6-dimethoxybenzoate] | 7.80
COc1cccc2[nH]c(C(=O)N[C@@H](CC(C)C)C(=O)N[C@@H](C[C@@H]3CCNC3=O)C(=O)COC(=O)c3ccc(C#N)cc3F)cc12 [Example 14, (3S)-3-({N-[(4-methoxy-1H-indol-2-yl)carbonyl]-L-leucyl}amino)-2-oxo-4-[(3S)-2-oxopyrrolidin-3-yl]butyl 4-cyano-2-fluorobenzoate] | 9.70
COc1cccc2[nH]c(C(=O)N[C@@H](CC(C)C)C(=O)N[C@@H](C[C@@H]3CCNC3=O)C(=O)COC(=O)c3ccccc3C#N)cc12 [Example 15, (3S)-3-({N-[(4-methoxy-1H-indol-2-yl)carbonyl]-L-leucyl}amino)-2-oxo-4-[(3S)-2-oxopyrrolidin-3-yl]butyl 2-cyanobenzoate] | 9.40
